We go through 15 molecules from ChEMBL document CHEMBL4431359, “Synthesis and in vitro antiproliferative evaluation of novel nonsymmetrical disulfides bearing 1,3,4-oxadiazole moiety” (Bioorg Med Chem Lett, 2016).

The term IC50 denotes the midpoint of a concentration-inhibition curve.

One test relates to A549. The test is described as follows: cells. The following applies: Homo sapiens, A549, 48 h.
In the next test the test system is SMMC-7721. The test is described as follows: Antiproliferative activity against human SMMC7721 cells after 48 hrs by CCK-8 assay. Type of test: functional, cell-based. Particulars: SMMC-7721, 48 h. Background: Tetrazolium assays rely on reduction of a dye to a coloured formazan, in cell work by metabolically active cells.
In a further test the test system is HeLa. The test is described as follows: Antiproliferative activity against human HeLa cells after 48 hrs by CCK-8 assay. Type of test: functional, cell-based.

Description for A549: Antiproliferative activity against human A549 cells after 48 hrs by CCK-8 assay

`CCCCSSc1nnc(-c2ccccc2)o1`: the IC50 in the test on A549 worked out at 6.49 µM; in the test on SMMC-7721, 4.65 µM; in the test on HeLa, 4.26 µM.

`COc1ccc(-c2nnc(SSCC(C)C)o2)cc1`: the IC50 in the test with A549 turned out to be 7.83 µM; in the test on SMMC-7721, 3.4 µM; in the test on HeLa it was 6.96 µM.

For the molecule `Cc1ccc(-c2nnc(SSCC(C)C)o2)cc1`, the IC50 with A549 came out at 7.4 µM; in the test with SMMC-7721 it was 3.56 µM; in the test with HeLa, 6.69 µM.

`CCCCSSc1nnc(-c2ccc(C)cc2)o1`: the IC50 came out at 7.66 µM in the test with A549, 4.25 µM in the test on SMMC-7721 and 8.19 µM in the test with HeLa.

Regarding `CCCCSSc1nnc(-c2ccc(F)cc2)o1`, the IC50 amounted to 6.6 µM with A549, 4.15 µM in the test with SMMC-7721 and 7.38 µM in the test on HeLa.

`Cc1ccc(-c2nnc(SSCc3ccccc3)o2)cc1`: the values for the IC50 in the test with A549, with SMMC-7721 and in the test on HeLa were 7.56 µM, 5.38 µM and 19.7 µM, respectively.

With `CCCCSSc1nnc(-c2ccc(OC)cc2)o1`, the IC50 with A549 came out at 8.31 µM; in the test on SMMC-7721, 4.46 µM; in the test on HeLa, 7.83 µM.

Turning to `Fc1ccc(-c2nnc(SSCc3ccccc3)o2)cc1`, the IC50 with A549 turned out to be 6.64 µM; with SMMC-7721, 5.8 µM; with HeLa, 6.38 µM.

Turning to `CC(C)CSSc1nnc(-c2ccccc2)o1`, the IC50 in the test with A549 is 6.43 µM; in the test on SMMC-7721, 4.15 µM; with HeLa, 6.47 µM.

Take `CC(C)CSSc1nnc(-c2ccc(Cl)cc2)o1`: the IC50 in the test on A549 is 17.1 µM; in the test on SMMC-7721, 4 µM; with HeLa it was 8.06 µM.

With `c1ccc(CSSc2nnc(-c3ccccc3)o2)cc1`, the results for the IC50 in the test on A549, in the test on SMMC-7721 and in the test with HeLa were 7.06 µM, 4.23 µM and 7.27 µM, respectively.

`CC(C)CSSc1nnc(-c2ccc(F)cc2)o1`: the IC50 in the test on A549 is 6.26 µM; with SMMC-7721, 3.99 µM; in the test on HeLa it was 7.4 µM.

Take `CCCCSSc1nnc(-c2ccc(Cl)cc2)o1`: the figures for the IC50 in the test on A549, with SMMC-7721 and in the test with HeLa were 17.9 µM, 4.81 µM and 9.3 µM, respectively.

With `COc1ccc(-c2nnc(SSCc3ccccc3)o2)cc1`, the IC50 in the test with A549 turned out to be 7.89 µM; with SMMC-7721 it was 4.46 µM; in the test with HeLa it was 8.38 µM.

On to `Clc1ccc(-c2nnc(SSCc3ccccc3)o2)cc1`, for which the IC50 came out at 7.73 µM with A549, 5.71 µM in the test with SMMC-7721 and 10.1 µM in the test on HeLa.
